Test results as given in BindingDB's records for doi:10.1021/jm1009154 (University of Copenhagen, 2010).
pIC50: −log10 of the molar value.

Target: Excitatory amino acid transporter 1 (Homo sapiens, UniProt P43003)
Assay: Inhibition of human EAAT1 expressed in HEK293 cells by [3H]D-Asp uptake assay

Excitatory amino acid transporter 1, sequence (P43003 whole entry): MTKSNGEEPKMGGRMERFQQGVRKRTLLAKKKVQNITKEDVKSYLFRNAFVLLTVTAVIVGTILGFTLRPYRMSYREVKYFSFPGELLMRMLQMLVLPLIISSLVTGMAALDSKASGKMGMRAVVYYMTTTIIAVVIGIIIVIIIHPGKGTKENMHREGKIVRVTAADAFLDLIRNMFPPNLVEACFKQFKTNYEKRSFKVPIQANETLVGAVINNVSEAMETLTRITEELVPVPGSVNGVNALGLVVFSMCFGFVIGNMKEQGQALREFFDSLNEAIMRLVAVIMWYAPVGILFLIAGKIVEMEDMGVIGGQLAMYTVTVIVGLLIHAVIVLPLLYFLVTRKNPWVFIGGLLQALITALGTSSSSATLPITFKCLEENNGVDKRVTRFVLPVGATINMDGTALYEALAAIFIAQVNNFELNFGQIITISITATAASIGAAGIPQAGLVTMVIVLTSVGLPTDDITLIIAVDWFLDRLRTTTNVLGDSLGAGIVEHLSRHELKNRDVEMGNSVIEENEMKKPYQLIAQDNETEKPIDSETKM

Structure (SMILES)	pIC50
CC1CC(=O)C2=C(C1)OC(=N)C(C#N)C2c1ccc2c(c1)OCO2 (stereo not drawn) [2-amino-4-(benzo[d][1,3]dioxol-5-yl)-7-methyl-5-oxo-5,6,7,8-tetrahydro-4H-chromene-3-carbonitrile]	< 3.50
N#CC1C(=N)OC2=C(C(=O)O[C@H](c3ccccc3)C2)[C@@H]1c1ccccc1 (relative stereo) [anti-2-Amino-5-oxo-4,7-diphenyl-4,5,7,8-tetrahydropyrano[4,3-b]-pyran-3-carbonitril]	< 3.52
COC(=O)C1C(=N)OC2=C(C(=O)CC(c3ccccc3)C2)C1c1ccccc1 (stereo not drawn) [Methyl2-Amino-5-oxo-4,7-diphenyl-5,6,7,8-tetrahydro-4Hchromene-3-carboxylate]	< 3.52
N#CC1C(=N)OC2=C(C(=O)N[C@@H](c3ccccc3)C2)[C@@H]1c1ccccc1 (relative stereo) [syn-2-amino-5-oxo-4,7-diphenyl-5,6,7,8-tetrahydro-4H-pyrano[3,2-c]pyridine-3-carbonitrile]	< 3.52
N#CC1C(=N)OC2=C(C(=O)N[C@H](c3ccccc3)C2)[C@@H]1c1ccccc1 (relative stereo) [anti-2-Amino-5-oxo-4,7-diphenyl-5,6,7,8-tetrahydro-4H-pyrano-[3,2-c]pyridine-3-carbonitrile]	< 3.50
N=C1OC2=C(C(=O)CC(c3ccccc3)C2)C(c2ccccc2)C1C(N)=O (stereo not drawn) [2-Amino-5-oxo-4,7-diphenyl-5,6,7,8-tetrahydro-4H-chromene-3-carboxamide]	< 4.00
N=C1CC(c2ccccc2)C2=C(CC(c3ccccc3)CC2=O)O1 (stereo not drawn) [2-Amino-4,7-diphenyl-7,8-dihydro-4H-chromen-5(6H)-one]	< 4.00
N#CC1C(=N)OC2=C(C(=O)O[C@@H](c3ccccc3)C2)[C@@H]1c1ccccc1 (relative stereo) [syn-2-Amino-5-oxo-4,7-diphenyl-4,5,7,8-tetrahydropyrano[4,3-b]-pyran-3-carbonitrile]	< 3.52
